The source of these data is a melting point compilation (Tetko et al.).

The melting point is the temperature, or range, at which the solid turns liquid.

A value given as a limit tells only on which side of the number the result lay.

In the case of `O=C(O)C=Cc1ccc(O)cc1`, the melting point was determined as 214 °C.
To `CC(/N=N/c1cc(Cl)cc(Cl)c1O)=C(\Cl)C(=O)OCCOCCOCCCl` belongs 71.5 °C; to `CC1CCC(C)(C(=O)NNc2ccccc2)C1(C)C` (stereo unspecified), 92 °C; to `ClC(Cl)(Br)C(Cl)(Cl)Br`, 220 to 222 °C.
In the case of `CCOC(=O)c1c(SC)nn(C(=O)c2cccc(C)c2)c1C`, the melting point amounted to 115 °C.
Under `CCOP(=O)(OCC)On1nnc2ccccc2c1=O` stands 74 °C; under `Cc1nccc(O)c1OCc1ccc(Cl)cc1Cl`, 218 to 222 °C; under `Cc1ccc(S(=O)(=O)OCCc2coc3ccccc23)cc1`, 61 to 62 °C.
In turn, `CCOC(=O)C1(S(=O)(=O)c2ccc(C)cc2)CCC1` returned a melting point of 53.5 °C.
Under `O=C(O)Cc1cccc(CC(=O)O)c1` stands 175 °C.
To `O=C1c2cc3ccccc3cc2-c2ccc3ccccc3c21` belongs 214 °C.
The compound `N#CC1(N=NC2(C#N)CCCCC2)CCCCC1` yielded a melting point of 116 °C.
Under `O=Cc1cccc(Oc2ccccn2)c1` stands 115 to 116 °C; under `Cc1cc(CC(=O)O)n(C)c1C(=O)c1ccc(Cl)cc1`, 178 °C; under `COC(=O)c1ccc(C(=O)CC#N)cc1`, 170 to 174 °C.
Under `CCN1CC2(COC)CCC(O)C34C5CC6C(OC)CC(O)(C5C6OC)C(O)(C(OC)C23)C14` (stereo unspecified) stands 214 °C.
In turn, `CC(=O)Nc1cc(NC(C)=O)c([N+](=O)[O-])cc1[N+](=O)[O-]` registered a melting point of 247 to 248 °C.
Under `CCOC(=O)C(=NNc1ccccc1[N+](=O)[O-])C(C)=O` stands 73 to 74 °C; under `CN1CCC(N(Cc2cccs2)c2ccccc2)CC1`, 95 °C; under `O=C(O)C=Cc1ccc(Cl)cc1Cl`, 245 to 248 °C.
To `Cc1oc(C(=O)NN)nc1-c1ccccc1` belongs 124 to 126 °C.
To `c1ccc(Cc2cccc3ccccc23)cc1` belongs 59.5 °C.
Consider `COc1ccc(/C=C(\Oc2ccccc2)c2nc3ccccc3s2)cc1`, for which the melting point amounted to 151 °C.
Under `Oc1cccc(I)c1` stands 118 °C.
To `C=CCc1ccc2c(c1)OCO2` belongs 11.2 °C; to `NNC(=O)c1cccs1`, 139 °C; to `O=C1c2ccccc2C(=O)c2c1cc1ccccc1c2O`, 320 to 322 °C.
Under `Oc1ccc2c(O)cccc2c1` stands 138 °C; under `FC(F)(F)c1ccc(N2CCOCC2)c(Br)c1`, 50 to 52 °C; under `CCCSP(=O)(OCC)Oc1ccc(Br)cc1Cl` (stereo unspecified), under 25 °C.
The compound `S=C=Nc1c(Cl)cc(Cl)cc1Cl` displayed a melting point of 74 to 76 °C.
`O=C1C(=O)C(Br)=C(Br)C(Br)=C1Br` displayed a melting point of 143 to 148 °C.
To `ClCc1cc(Cl)cc2c1OCOC2` belongs 101 °C; to `O=Cc1cccc(C(F)(F)F)c1O`, 57 °C.
Under `COc1ccc(NS(=O)(=O)c2ccc(N)cc2)nn1` stands 182 °C; under `Sc1nc2cc3c(cc2[nH]1)OCCO3`, 300 °C.
As to `CCCCCCCCCCCCCCCC(=O)OCCC`, the melting point came out at 20.4 °C.
Under `CS(=O)(=O)Cc1ccccc1` stands 126 °C; under `CC12CCC(=O)C=C1CCC1C3CCC(O)(C(=O)CO)C3(C)CC(O)C12F` (stereo unspecified), 261 °C; under `NS(=O)(=O)c1cc2c(cc1C(F)(F)F)NC(Cc1ccccc1)NS2(=O)=O` (stereo unspecified), 222 °C.
Under `NC(C(=O)O)C1=CCC=CC1` (stereo unspecified) stands 260 °C.
For the compound `CC12CC(O)C3C(CCC4CC(O)CCC43C)C1CCC2=O` (stereo unspecified), the melting point worked out at 235 °C.
Consider `CC(C)C1(Cc2ccco2)C(=O)NC(=O)NC1=O`, for which the melting point was determined as 169 °C.
Under `O=[N+]([O-])c1ccc(OCCCBr)cc1` stands 56 to 58 °C.
Under `CC(C)(C)OC(=O)NCc1ncccc1F` stands 56 to 58 °C; under `CCCCN(CCO)CCCC`, -75 °C; under `O=C(O)c1ccnc(N2CCCCC2)c1`, 167 to 168 °C.
Under `CCC1=[N+]([O-])C(C)(C)N(C)C1(C)C` stands 32 to 34 °C; under `NS(=O)(=O)c1ccc(Sc2cccs2)s1`, 105 to 108 °C; under `Cc1cccc(OCC(O)CNC(C)C)c1` (stereo unspecified), 76 °C.
Compound `Nc1ccc(N=Nc2ccc(S(N)(=O)=O)cc2)c(N)c1` had a melting point of 250 °C.
In turn, `CCSC(C)C` yielded a melting point of -122 °C.
To `O=C1CCCC1C1CCCC1` (stereo unspecified) belongs -13 °C; to `COC(=O)c1cc(Cl)cc(C(=O)OC)c1`, 78 to 80 °C.
`Nc1ccc(Cl)cc1C(F)(F)F` came in with a melting point of 9 °C.
To `CON=C(C(=O)OC)c1ccccc1COc1ccccc1C` belongs 102 °C; to `CC12CCC3c4ccc(OC(=O)c5ccccc5)cc4CCC3C1CCC2O` (stereo unspecified), 196 °C.
On to `CN1C(=O)c2ccccc2C1OC(=O)c1ccccc1` (stereo unspecified), for which the melting point was found to be 93 °C.
Consider `COc1cc(C)c2c(=O)c(-c3ccccc3)coc2c1`, for which the melting point is 116 to 120 °C.
To `Nc1ccccc1C(=O)OCC=Cc1ccccc1` belongs 61 °C; to `NC(=S)NN=Cc1ccccc1`, 154 to 156 °C; to `Cc1nccn1-c1cccc(C(=O)O)c1`, 182 to 184 °C.
`CCOC(=O)CC=C(c1ccc(OC)cc1)C(C)(C)C(=O)OCC` registered a melting point of 146 °C.
To `CC1CC(=O)OC(=O)C1` belongs 40 to 45 °C; to `O=S(=O)(O)CCCN1CCN(CCO)CC1`, 231 °C; to `Clc1cn2ccsc2n1`, 85 °C.
Under `O=C(Nc1ccccc1)C(Cl)(Cl)Cl` stands 96 °C.
Under `S=C=Nc1ccc(Br)cc1Cl` stands 46 °C; under `c1ccc(COc2ccc3ccccc3c2)cc1`, 97 °C.
Turning to `O=C(Nc1ccccc1)N(Cc1ccc(Cl)cc1)C1CCCC1`, the melting point was found to be 132 °C.
To `CC1=C(C)S(=O)(=O)CCS1(=O)=O` belongs 168 °C; to `CCOC(=O)c1csc(N2CCOCC2)n1`, 88.5 to 90 °C.
To `FC(F)(F)c1nn(CN2CCN(Cn3nc(C(F)(F)F)n(N=Cc4ccccc4)c3=S)CC2)c(=S)n1N=Cc1ccccc1` belongs 333 °C; to `FC(F)(F)c1nc2c(Cl)c(Cl)ccc2[nH]1`, 214 °C; to `O=C(c1ccc(Br)cc1)c1noc(-c2ccc([N+](=O)[O-])cc2)c1S(=O)(=O)c1ccccc1`, 200 to 202 °C.
Under `Cc1cccc(C)c1NC(=O)CN1CCN(CCCC(c2ccc(F)cc2)c2ccc(F)cc2)CC1` stands 159 °C.
`CC(=O)Nc1ccc(-c2ccc(F)cc2)cc1`: the melting point was in the range of 205 to 207 °C.
To `NS(=O)(=O)c1cccc(Br)c1` belongs 155 to 158 °C.
Under `Clc1cccc2c1Oc1ccccc1O2` stands 104 °C; under `Cc1cc(Cl)ccc1OCCCC(=O)O`, 100 °C.
Turning to `COc1cc([N+](=O)[O-])cc(C=O)c1O`, the melting point came out at 140 °C.
`CC(C)CCC[C@@H](C)[C@H]1CC[C@H]2[C@@H]3CC=C4C[C@@H](OCOc5ccc(Cl)cc5)CC[C@]4(C)[C@H]3CC[C@]12C` displayed a melting point of 144 to 145 °C.
To `O=C(Nc1cccnc1Cl)c1ccc(F)cc1` belongs 140 to 142 °C; to `NS(=O)(=O)c1ccc(SCCCCO)c(F)c1`, 104 °C.
To `CC(=O)c1ccc(N=C=S)cc1` belongs 82 to 85 °C; to `CC(C)=CC(=O)C=C(C)C`, 28 °C; to `COC(C(=O)O)c1ccccc1` (racemic), 68 to 72 °C.
To `Cc1ccccc1NC(=O)c1cncc(Cl)n1` belongs 98 °C; to `O=C(c1ccccc1)c1cc(C(=O)c2ccccc2)cc(C(=O)c2ccccc2)c1`, 118 °C; to `CCCCCCC(=O)OCCC`, -63.5 °C.
The compound `Cc1cccc2ncccc12` gave a melting point of 19 °C.
To `CCCCOC(=O)CCC(=O)OCCCC` belongs -29.2 °C; to `CC#CC1(O)CCCCC1`, 48 °C.
To `O=C=Nc1c(F)cccc1F` belongs 24 °C.
`CC1(C)CON(Cc2ccccc2Cl)C1=O` gave a melting point of 33.9 °C.
To `Clc1cc(Cl)c2c(oc3ccc(Cl)c(Cl)c32)c1Cl` belongs 210 °C; to `CC1(c2ccccc2)CC(C(=NOCC2CO2)c2cc3ccccc3o2)C1` (stereo unspecified), 159 to 160 °C.
Under `COC(=O)c1ccc2snnc2c1` stands 118 to 120 °C; under `O=C(O)CCSC=Cc1ccccc1`, 117 to 120 °C.
Under `O=C1CC(=O)NC(=O)N1` stands 248 °C; under `CCCC1(C)CC(=O)NC1=O` (stereo unspecified), 76 to 78 °C.
Compound `O=C(O)C(F)(F)C(F)(F)C(F)(F)C(F)(F)C(F)(F)C(F)(F)F` yielded a melting point of 31 to 36 °C.
Under `CSCC(=O)O` stands 14 °C; under `CCC(=O)Nc1c(C(=O)Cc2c(C)cc(C)cc2C)oc2ccccc12`, 147 to 148 °C; under `O=C(O)Cc1c[nH]c2ccc(O)cc12`, 162 to 165 °C.
Compound `NS(=O)(=O)c1cc(C(=O)c2ccc(O)cc2)cs1` came in with a melting point of 192 °C.
Take `CCc1ccccc1Cc1ccccc1N`: the melting point was found to be 35 °C.
Under `COCCN1CCCNCC1` stands 67 °C.
To `CC(C)=CC(=O)NS(=O)(=O)c1ccc(N)cc1` belongs 184 °C; to `CCCCCC(C)CCC` (stereo unspecified), -99 °C; to `Cc1noc(N)c1[N+](=O)[O-]`, 154 to 156 °C.
